This assay deals with human factor Xa (FXa) (Homo sapiens, UniProt P00742). As to the kind of experiment: Determination of the factor Xa inhibition (chromogenic substrate). In kind it is biochemical. The conditions noted are these: chromogenic substrate Pefachrome FXa, 25° C., extinction at 405 nm. The method, then:
The enzymatic activity of human factor Xa (FXa) is measured using the conversion of a chromogenic substrate specific for FXa. Factor Xa cleaves p-nitroaniline from the chromogenic substrate. The determinations are carried out in microtitre plates as follows:
The test substances, in various concentrations, are dissolved in DMSO and incubated for 10 minutes at 25° C. with human FXa ([…] dissolved in 50 mmol/l of Tris buffer [C,C,C-tris(hydroxymethyl)aminomethane], 150 mmol/l of NaCl, 0.1% BSA [bovine serum albumin], pH=8.3). Pure DMSO is used as control. The chromogenic substrate (150 μmol/l Pefachrome® FXa from Pentapharm) is then added. After an incubation time of 20 minutes at 25° C., the extinction at 405 nm is determined.
Chain of human factor Xa (FXa) (P00742 235-488 limits assumed): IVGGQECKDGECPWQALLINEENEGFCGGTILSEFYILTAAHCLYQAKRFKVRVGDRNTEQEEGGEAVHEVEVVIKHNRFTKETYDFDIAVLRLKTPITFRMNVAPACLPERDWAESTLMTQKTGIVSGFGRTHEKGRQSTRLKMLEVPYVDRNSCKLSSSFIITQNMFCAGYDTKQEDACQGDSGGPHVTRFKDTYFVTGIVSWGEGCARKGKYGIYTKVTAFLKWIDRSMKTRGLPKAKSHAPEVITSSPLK
Chain of human factor Xa (FXa) (P00742 41-179 partner limits assumed): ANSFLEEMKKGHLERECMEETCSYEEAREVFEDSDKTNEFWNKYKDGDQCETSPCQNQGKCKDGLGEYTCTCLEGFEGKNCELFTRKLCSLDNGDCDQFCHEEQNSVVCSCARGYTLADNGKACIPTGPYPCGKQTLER
As to `Cc1nc(C(=O)Nc2ccc(N3CCOC3=N)cc2)c(C(=O)Nc2ccc(Cl)cn2)s1` [Example 13, N^5-(5-Chloropyridin-2-yl)-N^4-[4-(2-imino-1,3-oxazolidin-3-yl)phenyl]-2-methyl-1,3-thiazole-4,5-dicarboxamide methanesulphonate], the IC50 was found to be 4.4 nM.
The value for `Cc1nc(C(=O)Nc2ccc(Cl)cn2)c(C(=O)Nc2ccc(N3CCOC3=N)cc2)s1` [Example 12, N^4-(5-Chloropyridin-2-yl)-N^5-[4-(2-imino-1,3-oxazolidin-3-yl)phenyl]-2-methyl-1,3-thiazole-4,5-dicarboxamide methanesulphonate] was 0.3 nM.
The value for `N=C1OCCN1c1ccc(NC(=O)c2nccnc2C(=O)Nc2ccc(Cl)cn2)cc1` [Example 1, N-(5-Chloropyridin-2-yl)-N′-[4-(2-imino-1,3-oxazolidin-3-yl)phenyl]pyrazine-2,3-dicarboxamide methanesulphonate] was 0.64 nM; that for `N=C1OCCCN1c1ccc(NC(=O)c2nccnc2C(=O)Nc2ccc(Cl)cn2)cc1` [Example 5, N-(5-Chloropyridin-2-yl)-N′-[4-(2-imino-1,3-oxazinan-3-yl)phenyl]pyrazine-2,3-dicarboxamide methanesulphonate] was 2.6 nM.

These data come from patent US20080214533A1, “Cyclic Iminocarbamates And Their Use” (BAYER HEALTHCARE AG, priority 2004, published 2008).
